US20030186943A1, “Substituted gamma-phenyl-delta-lactams and uses related thereto” (Inflazyme Pharmaceuticals Ltd., priority 1998, published 2003)
Where “and” joins values, the source holds several entries; their conditions need not be identical. Identical values can stand only once.

Key:
[1] = tested on: IL-2 production in concanavalin A stimulated primary human CD4+ T-cells; test: IL-2 production (Th1 profile) in concanavalin A stimulated primary human CD4+ T-cells; assay type: cell-based
From the text: (§1) The assay on the primary human T-cells involves their activation by concanavalin A (conA); (Sigma, Catalogue No. C 5275), followed by ELISA detection for cytokines for either profile. In the case of Th1-profiles, IL-2 and INF-γ are used as benchmarks while IL-10 is the indicator for a Th2-profile. Biologically, these indicators are useful in that IL-2 is the major T-cell mitogen while IL-10 represents a powerful yet selective immunosuppressive agent.
(§2) Approximately 60 cc of whole human blood was collected into ACD anti-coagulant vacutainer tubes. 15 mL Ficoll Paque 1077 was aliquoted into 6 sterile 50 mL conical tubes. 10 mL of blood was slowly layered on top of the Ficoll Paque by holding the tube upright and resting the pipette tip at the inside edge of the tube and allowing the blood to slowly run down the side of the tube. Tubes were spun at 1700 rpm for 30 minutes at room temperature. The plasma layer above the leukocyte band was aspirated off and a pasteur pipette was used to lift off the leukocyte band and transfer it to a sterile 50 mL conical tube. Cells from each leukocyte gradiant tube were transferred to a separate 50 mL conical tube. Sterile PBS pH 7.4 was added to each 50 mL conical tube containing cells from leukocyte band to a volume of 50 mL. Tubes were spun at 1100 rpm for 10 minutes. Supernatant was aspirated off and the cells were resuspended in 50 mL PBS pH 7.4. Tubes were re-centrifuged at 1100 rpm for 10 minutes. Supernatant was aspirated off and the cells were resuspended in appropriate medium at a density of 5×10^7 cells/mL or 2×10^6 cells/mL.
(§3) CD 4+T-cell Preparation: Cells from Leukocyte preparation were resuspended in sterile PBS pH 7.4 supplemented with 2-6% Fetal Bovine Serum (FBS) at a density of 5×10^7 cells/mL. Cells were then ready for isolation.
(§4) 100 μL of antibody cocktail (Stem Cell Technologies, Catalogue No. 14062) was added for each mL of cells and mixed well. Cells+Ab cocktail was incubated on ice for 30 minutes. After 30 minute incubation, 60 μL of magnetic colloid was added for each mL of cells, and mixed well. Cells+Ab cocktail+magnetic colloid were incubated on ice for 30 minutes. After a final 30 minute incubation cells were ready for magnetic cell separation.
(§5) Sample was loaded into the top of a column. The stopcock was turned to allow the flow of media down through the column, and the media was collected into a collection tube. PBS supplemented with 2-6% FBS was added to the column until three column volumes had been collected (not including the volume of the start sample). Cells were washed, counted, and resuspended in RPMI 1640 with 10% FBS+2 mM L-glutamine at a density of 1×10^6 cells/mL.
(§6) CD4+ T-cells were isolated as described above. Cells were suspended in RPMI 1640 media (Stem Cell Technologies Inc.; Catalogue No. 36750) with 10% FBS+2 mM L-glutamine at a density of 1×10^6 cells/mL. Cells were maintained on ice as test compounds were prepared. Test compounds were prepared in a sterile 96-well assay plate at 50×the final desired test concentration, all wells contained an equal amount of dimethylsulfoxide vehicle. 500 μL of CD4^+ T-cells were added to each well of 24-well assay plate. 10 μL of each test compound working solution was added to the appropriate wells; two wells were left as stimulated and non-stimulated controls. 10 μL of concanavalin A (50×the final concentration) at 10 μg/mL was added to each well with the exception of the non-stimulated control wells. Cells were incubated at 37° C. for 48 hours. Conditioned media is then assessed by ELISA for the quantity of IL-2, […], TNFα and IL-10 present.
(§7) Tables 5A, 5B and 5C represent a synopsis of data across individuals with respects to the potency of compounds of the invention in their ability to inhibit cytokines that are likely to promote or depress a Th1 or Th2 response. […]

[2] = tested on: High Affinity Rolipram Binding Site of PDE4 in Mouse Brain; test: Displacement of [3H]-rolipram from its high affinity binding site (HARBS); details: ratio of IC50 for PDE4 catalytic activity to concentration displacing 50% of rolipram from HARBS
[3] = tested on: CD8+ T-cells; test: CD8+ T-cell proliferation (2C-TCR transgenic); assay type: cell-based, mouse; details: at 5 μM
From the text: 2C-TCR transgenic mice (Sha W. C. et al., Nature 335:271-274, 1988) were used to provide a source of naive antigen specific CD8+T cells. The 2C-T cell antigen receptor recognizes the 2C peptide derived from the mitochondrial alpha-ketoglutarate dehydrogenase enzyme in the context of the Db class I MHC molecule.
To test the efficacy of a test compound in naive CD8+ T cell activation and proliferation, single cell suspensions of 2C lymph node (LN) T cells were isolated from 2C-TCR transgenic mice. 2C-T cells were stimulated with irradiated TAP−/− H-2d splenocytes or L^d transfected TAP−/− T2 cell line in the presence of varying concentrations of 2C peptide (0-10 uM). Proliferation was assessed by ^3H thymidine incorporation. Cell surface activation phenotype of T cells was performed by flow cytometric analysis

[4] = tested on: Th1 cells; test: Proliferation of differentiated Th1 CD4+ T cells; assay type: cell-based, mouse; details: CD4+ T cells already differentiated into Th1 phenotype
Description: The differentiation of naive CD4 T cells toward Th1 and Th2 lineages was performed as follows: 1×10^5 AND-lymph node T cells were cultured with […] B10.BR irradiated spleen cells in 2 ml of culture media with the following supplements: for Th1 cell differentiation, 100 U/mL IFNγ, 25U/mL IL2 and 10 ug/mL anti-IL4; for Th2 cell differentiation, 150 U/mL IL4, 25 U/mL IL2 and 10 ug/mL anti-IFNγ. After 3-4 days the wells were split 1:4 with the same additions. After 7 days the cells were harvested and washed 3 times to remove cytokines in the supernatents. 1×10^5 cultured cells were restimulated with 5×10^5 irradiated B10BR spleen cells +5 μM pcc peptide in 250 μl culture media without any added cytokines. The supernatents were harvested after 40 hrs and assessed for IL2, IL4 and IFNγ by ELISA. Test compounds were added throughout the differentiation of the culture.
Cultured Th1 and Th2 cells generated in the absence of test compounds were tested for proliferation and cytokine activity as described above during antigen stimulation in the presence of compound.

[5] = tested on: tail skin allograft rejection (C57BL/6 donor, BALB/c recipient mice); test: Murine tail skin allograft transplantation model; assay type: in vivo, mouse; details: 10 mg/kg i.p. twice daily
Description: Tail skin from donor H-2 b C57BL/6 mice was transplanted onto recipient female H-2^d BALB/c mice (Lagodzinski, Z. et al., Immunology 71:148-150 (1990)). Five mice were included per group. […] Test compounds and CsA were administered twice daily intraperitoneally at a dose of 10 mg/kg beginning at one day prior to transplantation and for 15 days after transplantation, including the day of transplantation. Mice were monitored and scored daily over 15 days post transplantation for graft rejection.
Skin allograft rejection is primarily mediated by T lymphocytes with little evidence for a major role of antibodies under most circumstances. Skin allograft rejection requires the activation of helper and cytotoxic effector T cell populations. Graft rejection was assessed by monitoring allograft necrosis. Because tail skin is visibly distinct from the surrounding trunk skin of the mouse, the course of rejection can be easily monitored. Fully intact grafts were scored as 100%. Complete graft rejection was defined as >90% graft necrosis. Acute graft rejection generally proceeds via a series of visually obvious events beginning with swelling and erythema of the graft. These events are followed by graft desiccation and scab formation over most or all of the graft, signaling the loss of the viable graft tissue. Scab formation is subsequently followed by shrinkage and scar formation.

[6] = tested on: TNBS-induced colitis in the rat; details: dose reduced to 50 mg/kg; cited from earlier work
[7] = tested on: TNBS-induced colitis in the rat; test: TNBS-induced colitis model of inflammatory bowel disease in the rat;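 note: rat colitis induced by intracolonic TNBS in 50% ethanol, distal colon assessed at sacrifice on day 7, with saline-instilled vehicle-treated rats as controls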
Description: Colitis was induced by intracolonic instillation of the hapten TNBS (60 mg/mL) in 0.5 mL of 50% ethanol. […] An additional group of rats received saline intracolonically in place of TNBS/ethanol and was treated with vehicle at the same times as outlined above. Body weights were recorded at the beginning of the study and at days 2 and 7.
The rats were sacrificed on the 7th day after the induction of colitis and the extent of damage and inflammation was assessed. After the rats were sacrificed, the distal colon was removed and pinned out on a wax platform. The presence or absence of diarrhea was noted, as well as the presence and severity of adhesions between the colon and other organs, and the severity and extent of colonic damage. […] After scoring, a sample of colonic tissue was excised for measurement of myeloperoxidase activity as an index of granulocyte infiltration (see Wallace et al., Gastroenterology 117: in press, 1999; and Morris et al., Gastroenterology 96:795-803, 1989). This tissue sample was 1 cm long (along the axis of the colon) and 5 mm wide and was taken from a region of macroscopically visible damage (or the corresponding region in any rats in which there was no damage). The remainder of the tissue was fixed in neutral buffered formalin and processed by routine methods for subsequent evaluation by light microscopy. In a blinded manner, the sample of colonic tissue from each rat was examined for evidence of mucosal ulceration and inflammation. The percentage of the luminal surface of the section in which ulceration was present was calculated.

[8] = tested on: High Affinity Rolipram Binding Site of PDE4 in Mouse Brain; details: values reported for second-generation PDE4 inhibitors; cited from earlier work
[9] = tested on: TNF-α production in concanavalin-A stimulated primary human CD4+ T-lymphocytes; test: TNF-α production in Con-A stimulated human CD4+ T-cells (ELISA); assay type: cell-based; details: T-lymphocyte, X marks this range, read-out: TNF-alpha IC50 RANGE (μM) <2
Description: Activated T-lymphocytes are known to produce TNF-α and may constitute a significant source of this important inflammatory mediator in localized regions of inflammation such as the rheumatoid synovium or psoriatic lesions. Supernatants from cona-stimulated primary human CD4+ T-cells that had been incubated in the presence or absence of a test compound were analyzed for TNF-α using an ELISA system. (Pharingen; recommended anti-TNF antibody set 18631-D and 18642-D). Substantial quantities of TNF-α were induced in vehicle treated T-cells stimulated with conA. […] This may be due to the differing sensitivity of monocyte/macrophages versus T-lymphocytes to elevations in intracellular cAMP with respect to regulatory pathways impacting TNF-α production.
as §2, §3, §4, §5, §6

[10] = tested on: IFN-gamma production in concanavalin A stimulated primary human CD4+ T-cells; test: IFN-gamma production (Th1 profile) in concanavalin A stimulated primary human CD4+ T-cells; assay type: cell-based; details: T-cell, 10 μg/mL Concanavalin A, 48 hours, X marks this range, read-out: INF-GAMMA IC50 RANGE (μM) 0.2-2.0
From the text: as §1, §2, §3, §4, §5, §6, §7

[11] = tested on: IL-10 production in concanavalin A stimulated primary human CD4+ T-cells; test: IL-10 production (Th2 profile) in concanavalin A stimulated primary human CD4+ T-cells; assay type: cell-based; details: T-cell, 10 μg/mL Concanavalin A, 48 hours, X marks this range, read-out: IL-10 IC50 RANGE (μM) 0.02-0.2
From the text: as §1, §2, §3, §4, §5, §6, §7

[12] = tested on: K562 chronic myelogenous leukemia cells; test: Anti-proliferative activity in K562 cells (3H-thymidine uptake); assay type: cell-based, human; details: Homo sapiens; K562, 48 hours, 3H-thymidine; X marks this range; read-out: IC50 range (μM) >50
Description: 90 μL K562 cells (human chronic myelogenous leukemia cells) were seeded into sterile 96-well assay plates at a density of 1×10^5 cells/mL in RPMI 1640 supplemented with 10% FBS/2 mM L-glutamine. Samples to be tested were prepared in a sterile 96-well assay plate at 10×the final concentration desired. All sample dilutions contained equal amounts of DMSO to compensate for the % DMSO in the highest sample concentration used. Nine concentrations of test compound were examined for effects on growth up to a maximal concentration of 100 μM. 10 μL of the samples and controls (DMSO/normal growth control) were added to the aliquoted cells. The cells were incubated at 37° C./5% CO2 for 48 hours. Following 48 hour incubation, 20 μL of 3H-thymidine was added to each well for a final concentration of 1 μCi/mL. The cells were then incubated at 37° C./5% CO2 for 4 to 6 hours. Following 4-6 hour thymidine pulse, plates were wrapped in plastic and frozen in a −20° C. frost-free freezer overnight. Cells were harvested and ^3H-thymidine counts determined. In order to distinguish between cytotoxicity and cytostatic activity, growth curves were prepared where the average CPM value of the seeding density of cells was plotted on the same curve as the average CPM value for the maximum proliferation attained after 48 hours (DMSO growth control cells). The cells were diluted 1:2 for a concentration range of 7.8×10^3 cells/mL to 2×10^6 cells/mL. 90 μL of each cell dilution was seeded in sterile 96-well assay plated and allowed to equilibrate for approximately 4 hours at 37° C./5% CO2 prior to ^3H-thymidine pulse. The data in Table 15 was obtained as described above, and more specifically, K562 cells were seeded into 96-well plates at 1×10^5 cells/mL in RPMI 1640 supplemented with 10% FBS/2 mM L-glutamine. Various concentrations of test compound or vehicle (DMSO) was added and the cells were incubated at 37° C./5 CO2 for 48 hours. The cells were then pulsed at 37° C./5% CO2 for 4 to 6 hours with 1 μCi/mL ^3H-thymidine. Radioactivity incorporated into DNA was determined after harvesting onto glass fiber filters and scintillation counting.

[13] = 100 mg/kg intracolonically at 12 h intervals for one week
[14] = 100 mg/kg intracolonically at 12 h intervals for one week, day 7

Compound: COc1ccc([C@H]2COC(=O)C(Cc3ccc(OC4CCCC4)c(OC)c3)C2)cc1OC (some centres unmarked) [Compound 136]
- Th1 versus Th2 cytokine profile ([1]; conA stimulated CD4+ selected cells): selective inhibition of a Th1 profile
- PDE4:HARBS [2]: <1
- inhibition of CD8+ T-cell proliferation [3]: approx. 40%
- inhibition of Th1 cells [4]: approx. 30%
- Average graft survival ([5]; from one day prior to and for 15 days after transplantation): 15.4 days and 15.4 ± 1.3 days
- Allograft survival rate (% at 9 days post-transplant) ([5]; 9 days post-transplant): 100%
- # grafts surviving beyond 16 days p.t. ([5]; five mice per group): 3

Compound: Nc1ccc(O)c(C(=O)OCCCCO[N+](=O)[O-])c1 [NCX-456]
- therapeutic effects in TNBS model at reduced dose [6]: lost
- Body Weight Change (%) [7, 13]: −5.7 ± 0.3%
- Mortality [7, 13]: 1/8
- Adhesion (Incidence) [7, 14]: (2/7)^ζ
- Adhesion Score [7, 14]: 0.4 ± 0.3
- Bowel Thickness (mm) [7, 14]: 2.02 ± 0.42 mm
- Damage Score [7, 14]: 3.7 ± 0.9
- Global Colitis Score [7, 14]: 6.60 ± 1.67
- reduction in the colonic damage score ([7]; 100 mg/kg, one week): 50%
- MPO Activity (U/mg) ([7]; colonic tissue, 100 mg/kg intracolonically at 12 h intervals for one week, day 7): 57.8 ± 11.6 U/mg
- Diarrhea ([7]; incidence, 100 mg/kg intracolonically at 12 h intervals for one week, day 7): 3/7
- Histology Score ([7]; percentage of luminal surface ulcerated, 100 mg/kg intracolonically for one week, day 7): 46.4 ± 4.1

Compound: COc1ccc(C(=O)Nc2c(Cl)cncc2Cl)cc1OC1CCCC1 [RP 73401]
- ratio of IC50's for PDE4catalytic to PDE4HARBS (reported) [8]: 3

Compound: COc1ccc([C@]2(C#N)CC[C@@H](C(=O)O)CC2)cc1OC1CCCC1 [SB 207499]
- ratio of IC50's for PDE4catalytic to PDE4HARBS (reported) [8]: 1

Compound: COc1cc(-c2ccc(=O)[nH]n2)ccc1OC(F)F [Zardaverine, reference compound]
- IC50 [9]: < 2 µM
- IC50 ([1]; Homo sapiens, T-cell, 10 μg/mL Concanavalin A, 48 hours, X marks this range, read-out: IL-2 IC50 RANGE (μM) 0.2-2.0): 0.2 to 2 µM
- IC50 [10]: 0.2 to 2 µM
- IC50 [11]: 0.02 to 0.2 µM
- IC50 [12]: > 50 µM
